Test results published in ChEMBL document CHEMBL1149677, “Synthesis of fluorescent and photoaffinity-labeled derivatives of bisphenol A and their inhibitory activity toward hypoxic expression of erythropoietin” (Bioorg Med Chem Lett, 2007).
The source made the active and inactive calls. No cut-off for these calls is given here.

What was measured:
Assay type in all cases: functional, cell-based
Hep 3B2 [1] = experiment: Inhibition of erythropoietin expression in human Hep3B cells at 200 uM
Hep 3B2 [2] = experiment: Inhibition of erythropoietin expression in human Hep3B cells
Hep 3B2 [3] = experiment: Inhibition of erythropoietin expression in human Hep3B cells at 300 uM

Row | SMILES | Activity (Hep 3B2 [2]) | also measured
1 | CC(C)(c1ccc(OCCCCNc2ccc([N+](=O)[O-])c3nonc23)cc1)c1ccc(OCCCCOc2ccc(C3(C(F)(F)F)N=N3)cc2)cc1 |  | Activity (Hep 3B2 [1]): Active
2 | CC(C)(c1ccc(O)cc1)c1ccc(OCCCCNc2ccc([N+](=O)[O-])c3nonc23)cc1 | Active | 
3 | CC(C)(c1ccc(OCCNc2ccc([N+](=O)[O-])c3nonc23)cc1)c1ccc(OCCOc2ccc(C3(C(F)(F)F)N=N3)cc2)cc1 |  | Activity (Hep 3B2 [3]): Active
4 | COCOc1ccc(C(C)(C)c2ccc(OCCCCOc3ccc(C4(C(F)(F)F)N=N4)cc3)cc2)cc1 | inactive | 
5 | COCOc1ccc(C(C)(C)c2ccc(OCCCCNc3ccc([N+](=O)[O-])c4nonc34)cc2)cc1 | Active | 
